Measurements reported in patent publication US20220249599A1, “TREATMENT OF IMPLANTS WITH ENGINEERED ANTIMICROBIAL AMPHIPHILIC PEPTIDES” (priority 2018, published 2022).
Ends that are not written are not given here.

Tests used:
Assay type in all cases: cell-based
[1] = system: Acinetobacter baumannii ATCC 19606 (non-MDR); settings: Acinetobacter baumannii ATCC 19606 (non-MDR)
How it was run: (§1)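 CLSI broth microdilution in Mueller Hinton II broth with 0.002% polysorbate 80; 2-fold peptide dilutions from 32 mcg/mL top final concentration (SEQ ID NO:5 and 8 in DMSO, 2.5% final at first dilution). Incubated 35° C for 16 to 20 hrs; MIC = lowest concentration inhibiting visible growth.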

[2] = system: Pseudomonas aeruginosa ATCC BAA-2109 (MDR); settings: ATCC BAA-2109
How it was run: as §1

[3] = system: Enterococcus faecium ATCC 51559 (VRE); settings: ATCC 51559
How it was run: as §1

[4] = system: Escherichia coli ATCC 25922 (QC); settings: ATCC 25922
How it was run: as §1

[5] = system: Streptococcus pyogenes ATCC 49399; settings: ATCC 49399
How it was run: as §1

[6] = system: Staphylococcus aureus ATCC 43300 (MRSA); settings: ATCC 43300
How it was run: as §1

[7] = system: Streptococcus agalactiae ATCC 13813
How it was run: as §1

[8] = system: Staphylococcus aureus ATCC 29213 (MSSA; QC); settings: ATCC 29213
How it was run: as §1

[9] = system: Enterococcus faecalis ATCC 29212 (VSE; QC); settings: ATCC 29212
How it was run: as §1

[10] = system: Streptococcus pneumoniae ATCC 49619 (QC); settings: ATCC 49619
How it was run: as §1

[11] = system: Staphylococcus aureus NRS382 (USA100; HA-MRSA); settings: USA100
How it was run: as §1

[12] = system: Pseudomonas aeruginosa ATCC 27853 (non-MDR; QC); settings: ATCC 27853
How it was run: as §1

[13] = system: Escherichia coli ATCC BAA-2471 (NDM-1); settings: ATCC BAA-2471
How it was run: as §1

[14] = system: Escherichia coli ATCC 35218 (ESBL); settings: ATCC 35218
How it was run: as §1

[15] = system: Enterococcus faecalis ATCC 700802 (V583 VRE); settings: ATCC 700802
How it was run: as §1

[16] = system: Klebsiella pneumoniae ATCC BAA-1705 (KPC); settings: ATCC BAA-1705
How it was run: as §1

RRWVRRVRRVWRRVVRVVRRWVRR-NH2 (C-terminus assumed) [SEQ ID NO: 1]
MIC [1]: 2 µg/mL
MIC [2]: 4 µg/mL
MIC [3]: 2 µg/mL
MIC [4]: 4 µg/mL
MIC [5]: 8 µg/mL
MIC [6]: 4 µg/mL
MIC [7]: 8 µg/mL
MIC [8]: 8 µg/mL
MIC [9]: 8 µg/mL
MIC [10]: 16 µg/mL
MIC [11]: 4 µg/mL
MIC [12]: 8 µg/mL
MIC [13]: 2 µg/mL
MIC [14]: 8 µg/mL
MIC [15]: 4 µg/mL
MIC [16]: 8 µg/mL
